Literature values in patent US7132111B2, “Odorless formulation for treating mucosal discontinuities” (Epien Medical, Inc., priority 2003, dated 2006).

Test system: aphthous ulcers
Details: applied locally, three times a day

CN(C)[C@@H]1C(O)=C(C(N)=O)C(=O)[C@@]2(O)C(O)=C3C(=O)c4c(O)ccc(Cl)c4[C@@](C)(O)[C@H]3C[C@@H]12 [Aureomycin]
duration of analgesic effect: one half to two
duration of the ulcers with treatment (reduced from about 10 days): ~5 days
